Here are results for 14 compounds from publication PMC9322052, “Synthesis and Biological Activity Screening of Newly Synthesized Trimethoxyphenyl-Based Analogues as Potential Anticancer Agents” (Molecules, 2022).

Series [1] relates to hepatocellular carcinoma HepG2 cell line. In words: MTT cytotoxicity assay, HepG2. The format is cell-based, human. To be noted: 24 h treatment, mean ± SE. Here is the method: All the newly synthesized analogs were evaluated for their in vitro cytotoxicity against the hepatocellular carcinoma HepG2 cell line. Podo was utilized as a reference control in the current study. […] The N-phenyl triazinone derivative 9 was further investigated for its cytotoxic effects against normal liver cell line HL-7702.
MTT colorimetric assay was carried out to investigate the impact of the newly synthesized compounds 2–11 on hepatocellular carcinoma (HepG2) and normal liver cell line (HL-7702) cell lines. See Section 3.3.1 in Supplementary Material.
3.3.1. Cytotoxic activity evaluation
To measure the cytotoxic activity of the synthesized derivatives 2a-11 in hepatocel-lular carcinoma (HepG2) cell line (ATCC Cat No. HB-8065) as well as normal human liver cell line HL-7702 (ATCC Cat. No. 77402), cell viability assay was assessed using MTT assay method. Cells at density of 1 x 104 were seeded in a 96-well plate at 37 °C for 24 h under 5% CO2. After incubation, the cells were treated with different concentrations of the test compounds 2a-11 and incubated for 24 h, then 20 μl of MTT solution at 5 mg/mL was applied and incubated for 4 h at 37 °C. Dimethyl sulphoxide (DMSO) in volume of 100 µl was added to each well to dissolve the purple formazan that had formed. The color inten-sity of the formazan product, which represents the growth condition of the cells, is quan-tified by using an ELISA plate reader (EXL 800, USA) at 570 nm absorbance. The experi-mental conditions were carried out with at least three replicates, and the experiments were repeated at least three times.
3.3.2. Tubulin inhibitions Assay
Compounds 9, 10 and 11 were evaluated for their tubulin inhibitory activity levels according to the manufacturer’s instructions using # abcam Human Beta-tubulin simplestep […]
3.3.3. Cell cycle analysis of compound 9
Cell cycle analysis in HepG2 cells was investigated using fluorescent Annexin V-FITC/ PI detection kit (BioVision EZCellTM Cell Cycle Analysis Kit Catalog #K920) by flow cytometry assay. HepG2 cells at a density of 2 × 10^5 per well were harvested and washed twice in PBS. After that, the cells were incubated at 37 °C and 5% CO2. […] Afterward, medium was stained with DNA flu-orochrome PI for 15 min at 37 °C. The samples were immediately analyzed using Facs Calibur flow cytometer (Becton and Dickinson, Heidelberg, Germany).
3.3.4. Apoptosis assay for compound 9
Apoptosis in HepG2 cells was investigated using fluorescent Annexin V-FITC/ PI de-tection kit (BioVision Annexin V-FITC Apoptosis Detection Kit, Catalog #: K101) by flow cy-tometry assay. HepG2 cells at a density of 2 × 10^5 per well were treated with compound 9 at its IC50 (μM) for 48 h, then the cells were harvested and stained with Annexin V-FITC/ PI dye for 15 min in the dark at 37 °C. The samples were immediately analyzed using FACS Calibur flow cytometer (Becton and Dickinson, Heidelberg, Germany).
3.3.5. Measurement of mitochondrial membrane potential (MMP) for compound 9 MMP was measured by FACS analysis using abcam ab113852TMRE Mitochondrial Membrane Potential Assay Kit with DiOC2(3) staining using MitoProbe™ DiOC2(3) Assay Kit for Flow Cytometry (M34150). After treatment with compound 9 at its IC50 concentra-tion, cells were stained with DiOC2(3) dye for 30 min in the incubator, then harvested and washed with PBS. DiOC2(3)-stained cells were represented with Annexin binding buffer and incubated at 37 °C for 15 min. The samples were immediately analyzed using cell […]
3.3.6. Effect on p53, Bax and Bcl-2 p53, Bax and Bcl2 enzyme activities in HepG2 cells were detected in the presence of com-pound 9 at its IC50 concentration (μM). The levels of the tumor suppressor gene p53, apoptotic markers Bax as well as the anti-apoptotic marker Bcl-2 were assessed using p53 ELISA kit, Human Bax ELISA kit and Bcl-2 Elisa kit. […]
On the technique in general: Formazan colour is commonly taken as a measure of viable cells.

Another series has as its system β-tubulin. In words: Tubulin polymerization inhibition (beta-tubulin ELISA in HepG2 cells). The format is cell-based, human. The following applies: HepG2 cells, each compound at its IC50 concentration (9 1.38, 10 2.52, 11 3.21, podo 2.08 μM), ELISA. Here is the method: The selected candidates were tested at a concentration equal to their IC50 concentration dose value. […] See Section 3.3.2 in Supplementary Material. […] page 18: 3.3. Biological studies 3.3.1. Cytotoxic activity evaluation To measure the cytotoxic activity of the synthesized derivatives 2a-11 in hepatocel- lular carcinoma (HepG2) cell line (ATCC Cat No. HB-8065) as well as normal human liver cell line HL-7702 (ATCC Cat. No. 77402), cell viability assay was assessed using MTT assay method. Cells at density of 1 x 104 were seeded in a 96-well plate at 37 °C for 24 h under 5% CO2. After incubation, the cells were treated with different concentrations of the test compounds 2a-11 and incubated for 24 h, then 20 μl of MTT solution at 5 mg/mL was […] Dimethyl sulphoxide (DMSO) in volume of 100 μl was added to each well to dissolve the purple formazan that had formed. The color […] of the formazan product, which represents the growth condition of the cells, is quan- […] by using an ELISA plate reader (EXL 800, USA) at 570 nm absorbance. The experi- mental conditions were carried out with at least three replicates, and the experiments were repeated at least three times. 3.3.2. Tubulin inhibitions Assay […] according to the manufacturer's instructions using # abcam Human Beta-tubulin […] ELISA Kit ab245722. 3.3.3. Cell cycle analysis of compound 9 Cell cycle analysis in HepG2 cells was investigated using fluorescent Annexin V- FITC/ PI detection kit (BioVision EZCellTM Cell Cycle Analysis Kit Catalog #K920) by flow cytometry assay. […] twice in PBS. After that, the cells were incubated at 37 °C and 5% CO2. […] Apoptosis assay for compound 9 Apoptosis in HepG2 cells was investigated using fluorescent Annexin V-FITC/ PI de- tection kit (BioVision Annexin V-FITC Apoptosis Detection Kit, Catalog #: K101) by flow cy- tometry assay. […] The samples were immediately analyzed using FACS Calibur flow cytometer (Becton and Dickinson, Heidelberg, Germany). 3.3.5. Measurement of mitochondrial membrane potential (MMP) for compound 9 MMP was measured by FACS analysis using abcam ab113852TMRE Mitochondrial Membrane Potential Assay Kit with DiOC2(3) staining using MitoProbeTM DiOC2(3) Assay Kit for Flow Cytometry (M34150). After treatment with compound 9 at its IC50 concentra- tion, cells were stained with DiOC2(3) dye for 30 min in the incubator, then harvested and washed with PBS. […] The samples were immediately analyzed using cell Quest software. […] Effect on p53, Bax and Bcl-2 p53, Bax and Bcl2 enzyme activities in HepG2 cells were detected in the presence of com- pound 9 at its IC50 concentration (μM). The levels of the tumor suppressor gene p53, apoptotic markers Bax as well as the anti-apoptotic marker Bcl-2 were assessed using p53 ELISA kit, Human Bax ELISA kit and Bcl-2 Elisa kit. […]
Background: In an ELISA, binding on a coated surface is turned into a signal by an enzyme label.

By IC50 is commonly meant the concentration that inhibits the measured activity by half. For orientation: melting point means the temperature, or range, at which the solid turns liquid.

In turn, `CCOC(=O)/C(=C/c1cc(OC)c(OC)c(OC)c1)NC(=O)c1ccc(OC)c(OC)c1` [Compound 2b, (Z)-Ethyl 2-(3,4-Dimethoxybenzamido)-3-(3,4,5-Trimethoxyphenyl)acrylate] had a melting point of 248 to 250 °C. This compound came in with an IC50 in series [1] of 11.1 ± 0.77 µM. For the same compound, the IC50 in series [1] (Homo sapiens, HepG2, 24 h) is below 20 µM.
The like results for `COc1ccc(C(=O)N/C(=C\c2cc(OC)c(OC)c(OC)c2)C(=O)NNC(=O)c2ccncc2)cc1OC` [Compound 6, (Z)-N-(3-(2-Isonicotinoylhydrazinyl)-3-oxo-1-(3,4,5-Trimethoxyphenyl)prop-1-en-2-yl)-3,4-Dimethoxybenzamide] were, in that order, 248 to 250 °C, 8.74 ± 0.57 µM and below 10 µM.
`COc1ccc(C2=N/C(=C\c3cc(OC)c(OC)c(OC)c3)C(=O)NN2C(N)=S)cc1OC` [Compound 8, (Z)-3-(3,4-Dimethoxyphenyl)-6-oxo-5-(3,4,5-Trimethoxybenzylidene)-5,6-Dihydro-1,2,4-Triazine-2(1H)-Carbothioamide] registered a melting point of 248 to 250 °C.
The compound `COc1ccc(C(=O)N/C(=C\c2cc(OC)c(OC)c(OC)c2)C(=O)Nc2cccc(C)c2)cc1OC` [Compound 4a, (Z)-3,4-Dimethoxy-N-(3-oxo-3-(M-tolylamino)-1-(3,4,5-Trimethoxyphenyl)prop-1-en-2-yl)benzamide] showed a melting point of 248 to 250 °C. Besides, in series [1] (Homo sapiens, HepG2, 24 h), the midpoint of inhibition, the IC50, lay at 45.5 ± 2.89 µM.
In the case of `COc1ccc(C(=O)N/C(=C\c2cc(OC)c(OC)c(OC)c2)C(=O)NCC(=O)O)cc1OC` [Compound 3a, (Z)-2-(2-(3,4-Dimethoxybenzamido)-3-(3,4,5-Trimethoxyphenyl)acrylamido)acetic Acid], the melting point was 248 to 250 °C. Half-maximal inhibition in series [1] (IC50) was put at 8.13 ± 0.54 µM. Besides, the IC50 in series [1] (Homo sapiens, HepG2, 24 h) is below 10 µM.
The like results for `COC(=O)/C(=C/c1cc(OC)c(OC)c(OC)c1)NC(=O)c1ccc(OC)c(OC)c1` [Compound 2a, (Z)-Methyl 2-(3,4-Dimethoxybenzamido)-3-(3,4,5-Trimethoxyphenyl)acrylate] were, in that order, 248 to 250 °C, 14.4 ± 0.82 µM and below 20 µM.
Consider `COc1ccc(C(=O)N/C(=C\c2cc(OC)c(OC)c(OC)c2)C(=O)NNc2ccccc2)cc1OC` [Compound 5, (Z)-3,4-Dimethoxy-N-(3-oxo-3-(2-Phenylhydrazinyl)-1-(3,4,5-Trimethoxyphenyl)prop-1-en-2-yl)benzamide], for which the IC50 is 9.24 ± 0.52 µM in series [1] and below 10 µM in series [1] (Homo sapiens, HepG2, 24 h).
The compound `COc1ccc(C2=N/C(=C\c3cc(OC)c(OC)c(OC)c3)C(=O)NN2C(=O)c2ccncc2)cc1OC` [Compound 10, (Z)-3-(3,4-Dimethoxyphenyl)-2-Isonicotinoyl-5-(3,4,5-Trimethoxybenzylidene)-1,2-Dihydro-1,2,4-Triazin-6(5H)-one] came in with a melting point of 248 to 250 °C. The IC50 in series [1] (Homo sapiens, HepG2, 24 h) came to 2.52 ± 0.24 µM. In addition, the “β-tubulin polymerization inhibition percentage” value in the series on β-tubulin is listed as 80.51%.
Take `COc1ccc(N2C(=O)/C(=C/c3cc(OC)c(OC)c(OC)c3)N=C2c2ccc(OC)c(OC)c2)cc1` [Compound 7b, (Z)-2-(3,4-Dimethoxyphenyl)-1-(4-Methoxyphenyl)-4-(3,4,5-Trimethoxybenzylidene)-1H-Imidazol-5(4H)-one]: the melting point lay within 248 to 250 °C. This compound also gave an IC50 in series [1] of 6.45 ± 0.24 µM. Further, in series [1] (Homo sapiens, HepG2, 24 h), the IC50 is below 10 µM.
Turning to `COc1ccc(C(=O)N/C(=C\c2cc(OC)c(OC)c(OC)c2)C(=O)NC(C)C(=O)O)cc1OC` (stereo not drawn) [Compound 3b, (Z)-2-(2-(3,4-Dimethoxybenzamido)-3-(3,4,5-Trimethoxyphenyl)acrylamido)propanoic Acid], the melting point is 248 to 250 °C. Also, in series [1], it took 19.4 ± 1.43 µM to reach half-maximal inhibition (IC50). Moreover, the IC50 in series [1] (Homo sapiens, HepG2, 24 h) was below 20 µM.
In the case of `COc1ccc(C2=N/C(=C\c3cc(OC)c(OC)c(OC)c3)C(=O)N2c2ccc(O)cc2)cc1OC` [Compound 7a, (Z)-2-(3,4-Dimethoxyphenyl)-1-(4-Hydroxyphenyl)-4-(3,4,5-Trimethoxybenzylidene)-1H-Imidazol-5(4H)-one], the melting point was 248 to 250 °C.
For the compound `COc1ccc(C(=O)N/C(=C\c2cc(OC)c(OC)c(OC)c2)C(=O)NNc2ccccc2)cc1OC` (hydrate or solvate) [Compound 5, (Z)-3,4-Dimethoxy-N-(3-oxo-3-(2-Phenylhydrazinyl)-1-(3,4,5-Trimethoxyphenyl)prop-1-en-2-yl)benzamide], the melting point lay in the range of 248 to 250 °C.
The compound `COc1ccc(C(=O)N/C(=C\c2cc(OC)c(OC)c(OC)c2)C(=O)Nc2ccc(O)cc2)cc1OC` [Compound 4b, (Z)-N-(3-(4-Hydroxyphenylamino)-3-oxo-1-(3,4,5-Trimethoxyphenyl)prop-1-en-2-yl)-3,4-Dimethoxybenzamide] returned a melting point of 248 to 250 °C. The compound further yielded an IC50 in series [1] of 17.7 ± 1.1 µM. The IC50 in series [1] (Homo sapiens, HepG2, 24 h) is below 20 µM.
For the compound `COc1ccc(NC(=O)/C(=C/c2cc(OC)c(OC)c(OC)c2)NC(=O)c2ccc(OC)c(OC)c2)cc1` [Compound 4c, (Z)-3,4-Dimethoxy-N-(3-(4-Methoxyphenylamino)-3-oxo-1-(3,4,5-Trimethoxyphenyl)prop-1-en-2-yl)benzamide], the melting point lay within 248 to 250 °C. The same compound registered an IC50 in series [1] (Homo sapiens, HepG2, 24 h) of 23.7 ± 1.37 µM.
